Experimental data taken from ChEMBL document CHEMBL1138514, “Rhodamine inhibitors of P-glycoprotein: an amide/thioamide "switch" for ATPase activity” (J Med Chem, 2009).

Assays:
[1] = (§1) Permeability from basolateral to apical side of MDCK2 cells over expressing MDR1 at 5 uM in presence LSN335984 pretreated for 30 mins measured after 1 hr; conditions: dog, MDCK-MDR1, 1 h, 5 µM
[2] = Permeability from apical to basolateral side of MDCK2 cell monolayer over expressing MDR1 assessed as drug concentration associated with cell at 5 uM after 1 hr of drug washout by methanol; conditions: dog
[3] = Permeability from apical to basolateral side of MDCK2 cell monolayer over expressing MDR1 assessed as drug concentration associated with cell at 5 uM after 1 hr of drug washout by methanol in presence of LSN335984; conditions: dog
[4] = (§2) Permeability from apical to basolateral side of MDCK2 cells over expressing MDR1 at 5 uM after 1 hr; conditions: dog, MDCK-MDR1, 1 h, 5 µM
[5] = Octanol-water partition coefficient, log P of the compound
[6] = (§3) Permeability from basolateral to apical side of MDCK2 cells over expressing MDR1 at 5 uM after 1 hr; conditions: dog, MDCK-MDR1, 1 h, 5 µM
[7] = (§4) Permeability from apical to basolateral side of MDCK2 cells over expressing MDR1 at 5 uM in presence LSN335984 pretreated for 30 mins measured after 1 hr; conditions: dog, MDCK-MDR1, 1 h, 5 µM
[8] = target: T1, ATP-dependent translocase ABCB1 (Homo sapiens, UniProt P08183); assay: Inhibition of human MDR1 expressed in MDCK2 cells assessed as enhancement of Calcein-AM uptake treated 30 mins before Calcein-AM challenge measured after 20 mins
[9] = target: MDR1 (ABCB1) (Homo sapiens, UniProt P08183); assay: Induction of human histidine10-tagged MDR1 ATPase activity expressed in BHK cells relative to basal activity
[10] = target: MDR3 (ABCB1) (Mus musculus, UniProt P21447); assay: Induction of mouse cysteine-less MDR3 ATPase activity relative to basal activity
[11] = test system: MDR1; assay: as §1; conditions: dog
[12] = target: ATP-dependent translocase ABCB1 (Mus musculus, UniProt P21447); assay: Inhibition of verapamil-stimulated ATPase activity of mouse cysteine-less MDR3
[13] = target: T1, ATP-dependent translocase ABCB1; assay: Inhibition of verapamil-stimulated ATPase activity of human histidine10-tagged MDR1 expressed in BHK cells
[14] = Ratio of permeability from apical to basolateral side after 1 hr of drug washout by methanol to apical to basolateral side in MDCK2 cell monolayer over expressing MDR1 at 5 uM after 1 hr of drug washout by methanol in presence LSN335984; conditions: dog, mdck-ii
[15] = test system: MDR1; assay: (§5) Efflux ratio of permeability from apical to basolateral over basolateral to apical side in MDCK2 cells over expressing MDR1 at 5 uM after 1 hr; conditions: dog, MDCK-MDR1
[16] = test system: MDR1; assay: as §2; conditions: dog, MDCK-MDR1
[17] = test system: MDR1; assay: Efflux ratio of permeability from apical to basolateral over basolateral to apical side in MDCK2 cells over expressing MDR1 at 5 uM after 1 hr in presence LSN335984 pretreated for 30 mins measured after 1 hr; conditions: dog
[18] = test system: MDR1; assay: as §3; conditions: dog, MDCK-MDR1
[19] = test system: MDR1; assay: as §4; conditions: dog
[20] = as §5; conditions: dog, MDCK-MDR1, 1 h, 5 µM
[21] = human histidine10-tagged MDR1 expressed in BHK cells
[22] = MDCK-MDR1, with LSN335984 (concentration not stated)

Sequence of MDR1 (ABCB1) (P08183 whole entry): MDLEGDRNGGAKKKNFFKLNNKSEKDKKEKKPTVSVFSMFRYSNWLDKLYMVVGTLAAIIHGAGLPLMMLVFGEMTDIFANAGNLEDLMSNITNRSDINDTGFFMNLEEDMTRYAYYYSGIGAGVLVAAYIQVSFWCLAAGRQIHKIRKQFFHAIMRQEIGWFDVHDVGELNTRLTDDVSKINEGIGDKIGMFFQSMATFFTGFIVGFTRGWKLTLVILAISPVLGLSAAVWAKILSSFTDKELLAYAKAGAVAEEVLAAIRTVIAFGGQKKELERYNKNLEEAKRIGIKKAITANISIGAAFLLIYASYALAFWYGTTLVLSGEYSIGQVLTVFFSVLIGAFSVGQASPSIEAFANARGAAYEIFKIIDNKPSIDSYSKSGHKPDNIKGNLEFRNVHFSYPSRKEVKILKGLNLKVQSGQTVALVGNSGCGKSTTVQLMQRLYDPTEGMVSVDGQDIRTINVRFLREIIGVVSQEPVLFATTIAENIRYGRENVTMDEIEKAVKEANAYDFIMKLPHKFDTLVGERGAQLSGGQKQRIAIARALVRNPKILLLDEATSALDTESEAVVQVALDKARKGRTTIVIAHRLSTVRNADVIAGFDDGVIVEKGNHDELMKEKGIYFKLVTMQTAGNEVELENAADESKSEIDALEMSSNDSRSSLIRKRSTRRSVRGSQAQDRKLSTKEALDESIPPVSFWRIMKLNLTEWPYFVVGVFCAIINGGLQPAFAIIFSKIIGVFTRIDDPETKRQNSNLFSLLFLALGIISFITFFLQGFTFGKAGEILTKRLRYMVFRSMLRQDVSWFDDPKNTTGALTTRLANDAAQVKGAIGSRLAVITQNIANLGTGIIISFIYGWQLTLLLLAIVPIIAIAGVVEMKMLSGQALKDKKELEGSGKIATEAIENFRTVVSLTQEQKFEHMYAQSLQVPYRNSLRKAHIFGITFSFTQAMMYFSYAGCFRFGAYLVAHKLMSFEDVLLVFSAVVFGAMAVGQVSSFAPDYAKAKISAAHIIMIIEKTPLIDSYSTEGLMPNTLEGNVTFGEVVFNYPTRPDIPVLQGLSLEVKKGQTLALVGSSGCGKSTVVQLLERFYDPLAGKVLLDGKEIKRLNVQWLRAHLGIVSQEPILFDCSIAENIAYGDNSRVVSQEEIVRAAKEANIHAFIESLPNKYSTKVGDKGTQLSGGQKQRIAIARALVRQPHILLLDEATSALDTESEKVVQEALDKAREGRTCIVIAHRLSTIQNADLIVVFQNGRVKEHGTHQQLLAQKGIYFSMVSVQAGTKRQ
T1 sequence (P08183 whole entry): as above
Sequence of MDR3 (ABCB1) (P21447 whole entry): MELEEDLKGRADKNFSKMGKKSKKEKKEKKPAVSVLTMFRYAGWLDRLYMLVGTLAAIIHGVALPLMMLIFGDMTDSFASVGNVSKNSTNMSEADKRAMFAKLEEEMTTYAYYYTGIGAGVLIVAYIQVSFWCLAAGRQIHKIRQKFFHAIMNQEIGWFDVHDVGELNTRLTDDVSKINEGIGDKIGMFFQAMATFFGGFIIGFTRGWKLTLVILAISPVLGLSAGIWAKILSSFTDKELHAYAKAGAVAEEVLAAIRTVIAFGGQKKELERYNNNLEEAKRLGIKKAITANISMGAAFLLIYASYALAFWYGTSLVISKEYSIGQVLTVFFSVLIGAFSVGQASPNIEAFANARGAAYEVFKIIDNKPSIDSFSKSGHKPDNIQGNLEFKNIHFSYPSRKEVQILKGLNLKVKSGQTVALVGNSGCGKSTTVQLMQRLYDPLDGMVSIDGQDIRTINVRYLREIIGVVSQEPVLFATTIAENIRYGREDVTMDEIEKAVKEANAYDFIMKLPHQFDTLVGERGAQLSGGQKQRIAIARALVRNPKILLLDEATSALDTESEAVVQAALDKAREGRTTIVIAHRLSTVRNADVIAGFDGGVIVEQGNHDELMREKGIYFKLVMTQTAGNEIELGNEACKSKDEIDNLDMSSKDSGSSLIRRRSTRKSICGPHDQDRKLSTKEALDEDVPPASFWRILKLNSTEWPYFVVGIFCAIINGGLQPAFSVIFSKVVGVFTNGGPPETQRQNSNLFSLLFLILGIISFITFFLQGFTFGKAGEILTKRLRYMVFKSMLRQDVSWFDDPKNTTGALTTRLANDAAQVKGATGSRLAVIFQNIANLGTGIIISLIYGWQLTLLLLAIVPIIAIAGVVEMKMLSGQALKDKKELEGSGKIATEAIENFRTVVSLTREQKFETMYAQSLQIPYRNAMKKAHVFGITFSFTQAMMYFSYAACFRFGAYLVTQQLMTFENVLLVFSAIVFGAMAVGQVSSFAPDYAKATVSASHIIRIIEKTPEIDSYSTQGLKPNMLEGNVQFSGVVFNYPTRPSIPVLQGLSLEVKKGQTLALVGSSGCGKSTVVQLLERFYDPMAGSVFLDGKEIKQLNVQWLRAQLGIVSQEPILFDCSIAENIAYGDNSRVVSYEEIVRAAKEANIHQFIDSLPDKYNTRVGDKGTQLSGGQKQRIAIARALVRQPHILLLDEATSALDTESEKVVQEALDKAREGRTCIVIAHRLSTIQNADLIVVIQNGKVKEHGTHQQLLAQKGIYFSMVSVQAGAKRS
Sequence of ATP-dependent translocase ABCB1 (Mus musculus, UniProt P21447) (P21447 whole entry, looked up): as the sequence (P21447 whole entry) above

## C[N+](C)=c1ccc2c(-c3ccc(C(=S)N4CCCCC4)s3)c3cc4c5c(c3sc-2c1)CCCN5CCC4.F[P-](F)(F)(F)(F)F
[1]
  permeability: 0.16 ×10⁻⁶ cm/s
[2]; MDCK-MDR1, 1 h
  Activity: 23%
[3]; MDCK-MDR1, 1 h
  Activity: 30%
[4]
  permeability: 0.08 ×10⁻⁶ cm/s
[5]
  logP: 2.7
[6]
  permeability: 5 ×10⁻⁶ cm/s
[7]
  permeability: 0.08 ×10⁻⁶ cm/s

## C[N+](C)=c1ccc2c(-c3ccc(C(=S)N4CCOCC4)s3)c3cc4c5c(c3[se]c-2c1)CCCN5CCC4
[8]
  IC50: 14 µM

## CN(C)c1ccc2c(-c3ccccc3)c3ccc(=[N+](C)C)cc-3[se]c2c1
[8]
  IC50: 11 µM
[9]; [21]
  fold induction: 7.2
[10]; mouse cysteine-less MDR3
  fold induction: 4

## CCN(CC)C(=O)c1ccc(-c2c3ccc(=[N+](C)C)cc-3[se]c3cc(N(C)C)ccc23)s1.F[P-](F)(F)(F)(F)F
[2]; mdck-ii, 1 h
  Activity: 11%
[3]; mdck-ii, 1 h
  Activity: 24%
[9]; [21]
  fold induction: 10.5
[10]; mouse cysteine-less MDR3
  fold induction: 10.1
[5]
  logP: -0.39

## C[N+](C)=c1ccc2c(-c3ccc(C(=S)N4CCCCC4)s3)c3cc4c5c(c3[se]c-2c1)CCCN5CCC4
[8]
  IC50: 5.3 µM

## CN(C)c1cccc(-c2c3ccc(=[N+](C)C)cc-3[se]c3cc(N(C)C)ccc23)c1
[9]; [21]
  fold induction: 7.6

## C[N+](C)=c1ccc2c(-c3ccccc3)c3cc4c5c(c3[se]c-2c1)CCCN5CCC4.F[P-](F)(F)(F)(F)F
[11]; [22]
  Papp B→A at 1 h, 5 µM: 1.2 ×10⁻⁶ cm/s
[2]; mdck-ii, 1 h
  Activity: 32%
[12]
  IC50: 0.28 µM
[13]
  IC50: 2.3 µM
[3]; mdck-ii, 1 h
  Activity: 64%
[14]
  Ratio: 2
[8]
  IC50: 4.9 µM
[15]
  efflux ratio at 1 h, 5 µM: 15
[9]; [21]
  fold induction: < 1.5
[10]; mouse cysteine-less MDR3
  fold induction: 2.1
[16]
  Papp A→B at 1 h, 5 µM: 1.6 ×10⁻⁶ cm/s
[17]; [22]
  efflux ratio at 1 h, 5 µM: 0.9
[5]
  logP: 2.4
[18]
  Papp B→A at 1 h, 5 µM: 25 ×10⁻⁶ cm/s
[19]; [22]
  Papp A→B at 1 h, 5 µM: 1.3 ×10⁻⁶ cm/s

## CN(C)c1ccc(-c2c3ccc(=[N+](C)C)cc-3[se]c3cc(N(C)C)ccc23)cc1
[12]
  IC50: 21 µM
[9]; bhk
  fold induction: 6.8
[10]
  fold induction: 2.3

## CCOC(=O)c1ccc(-c2c3ccc(=[N+](C)C)cc-3sc3cc(N(C)C)ccc23)s1
[10]; mouse cysteine-less MDR3
  fold induction: 2.9

## COc1cccc(-c2c3ccc(=[N+](C)C)cc-3sc3cc(N(C)C)ccc23)c1.[Br-]
[3]; mdck-ii, 1 h
  Activity: 56%
[5]
  logP: 0.14

## C[N+](C)=c1ccc2c(-c3ccccc3)c3cc4c5c(c3[te]c-2c1)CCCN5CCC4
[9]; [21]
  fold induction: 3

## CN(C)c1ccc(-c2c3ccc(=[N+](C)C)cc-3[te]c3cc(N(C)C)ccc23)cc1
[9]; [21]
  fold induction: 4.5

## CN(C)c1ccc(-c2c3ccc(=[N+](C)C)cc-3[se]c3c4c5c(cc23)CCCN5CCC4)cc1
[13]
  IC50: 6.8 µM
[9]; [21]
  fold induction: < 1.5

## COc1cccc(-c2c3ccc(=[N+](C)C)cc-3[se]c3cc(N(C)C)ccc23)c1
[9]; [21]
  fold induction: 2.5
[10]; mouse cysteine-less MDR3
  fold induction: 6.4

## CN(C)c1ccc2c(-c3ccccc3C(=O)O)c3ccc(=[N+](C)C)cc-3sc2c1
[10]; mouse cysteine-less MDR3
  fold induction: 3.5

## COC(=O)c1ccccc1-c1c2ccc(=[N+](C)C)cc-2sc2cc(N(C)C)ccc12
[10]; mouse cysteine-less MDR3
  fold induction: 6

## COc1cccc(-c2c3ccc(=[N+](C)C)cc-3[te]c3cc(N(C)C)ccc23)c1
[9]; [21]
  fold induction: 5.7

## COc1ccc(-c2c3ccc(=[N+](C)C)cc-3sc3cc(N(C)C)ccc23)cc1OC.F[P-](F)(F)(F)(F)F
[2]; mdck-ii, 1 h
  Activity: 16%
[3]; mdck-ii, 1 h
  Activity: 53%
[9]; [21]
  fold induction: 8.2
[10]; mouse cysteine-less MDR3
  fold induction: 3
[5]
  logP: 0.28

## CN(C)c1ccc2c(-c3ccsc3C(=O)O)c3ccc(=[N+](C)C)cc-3sc2c1
[9]; [21]
  fold induction: 4.3

## CN(C)c1ccc2c(-c3ccc(C(=O)O)s3)c3ccc(=[N+](C)C)cc-3sc2c1
[9]; [21]
  fold induction: 2.7

## CN(C)c1ccc2c(CCCOc3ccccc3)c3ccc(=[N+](C)C)cc-3sc2c1
[9]; [21]
  fold induction: 6.2
[10]; mouse cysteine-less MDR3
  fold induction: 6

## CCN(CC)C(=O)c1ccc(-c2c3ccc(=[N+](C)C)cc-3sc3cc(N(C)C)ccc23)s1
[10]; mouse cysteine-less MDR3
  fold induction: 10.6

## CN(C)c1ccc2c(-c3ccc(N4CCOCC4)cc3)c3ccc(=[N+](C)C)cc-3[se]c2c1
[12]
  IC50: 23 µM
[9]; [21]
  fold induction: 3.3
[10]; mouse cysteine-less MDR3
  fold induction: < 1

## CN(C)c1ccc2c(-c3ccc(C(=S)N4CCCCC4)s3)c3ccc(=[N+](C)C)cc-3sc2c1
[12]
  IC50: 32 µM
[5]
  logP: 1.7

## C[N+](C)=c1ccc2c(-c3ccc(C(=S)N4CCCCC4)s3)c3cc4c5c(c3[te]c-2c1)CCCN5CCC4
[8]
  IC50: 14 µM

## C[N+](C)=c1ccc2c(-c3ccc(C(=S)N4CCOCC4)s3)c3cc4c5c(c3sc-2c1)CCCN5CCC4
[8]
  IC50: 20 µM

## CN(C)c1ccc2c(-c3ccccc3)c3ccc(=[N+](C)C)cc-3[te]c2c1
[9]; [21]
  fold induction: 8.4

## CN(C)c1ccc2c(-c3ccc(C(=O)O)s3)c3ccc(=[N+](C)C)cc-3[te]c2c1
[9]; [21]
  fold induction: 1.8

## CN(C)c1ccc2c(-c3ccc(N4CCOCC4)cc3)c3ccc(=[N+](C)C)cc-3sc2c1
[9]; [21]
  fold induction: 4.8

## CN(C)c1cccc(-c2c3ccc(=[N+](C)C)cc-3sc3cc(N(C)C)ccc23)c1
[9]; [21]
  fold induction: 7.7
[10]; mouse cysteine-less MDR3
  fold induction: 3.5

## CN(C)c1ccc(-c2c3ccc(=[N+](C)C)cc-3sc3cc(N(C)C)ccc23)cc1
[9]; [21]
  fold induction: 9
[10]; mouse cysteine-less MDR3
  fold induction: 1

## CN(C)c1ccc2c(-c3ccsc3C(=O)O)c3ccc(=[N+](C)C)cc-3[se]c2c1
[9]; [21]
  fold induction: 2.1
[10]; mouse cysteine-less MDR3
  fold induction: 1.7

## CN(C)c1ccc2c(-c3ccc(C(=S)N4CCCCC4)s3)c3ccc(=[N+](C)C)cc-3[te]c2c1.F[P-](F)(F)(F)(F)F
[11]; MDCK-MDR1
  Papp B→A at 1 h, 5 µM: 0.2 ×10⁻⁶ cm/s
[2]; MDCK-MDR1, 1 h
  Activity: 12%
[15]
  efflux ratio at 1 h, 5 µM: 24
[16]
  Papp A→B at 1 h, 5 µM: 0.09 ×10⁻⁶ cm/s
[17]; MDCK-MDR1
  efflux ratio at 1 h, 5 µM: 1.7
[18]
  Papp B→A at 1 h, 5 µM: 2.2 ×10⁻⁶ cm/s
[19]; MDCK-MDR1
  Papp A→B at 1 h, 5 µM: 0.12 ×10⁻⁶ cm/s

## CN(C)c1cccc(-c2c3ccc(=[N+](C)C)cc-3[se]c3c4c5c(cc23)CCCN5CCC4)c1
[13]
  IC50: 23.6 µM
[9]; [21]
  fold induction: < 1.5

## CCN(CC)C(=O)c1ccccc1-c1c2ccc(=[N+](C)C)cc-2sc2cc(N(C)C)ccc12
[10]; mouse cysteine-less MDR3
  fold induction: 10.1

## CN(C)c1cccc(-c2c3ccc(=[N+](C)C)cc-3[te]c3cc(N(C)C)ccc23)c1
[9]; [21]
  fold induction: 5.5

## CN(C)c1ccc2c(-c3ccc(CCl)cc3)c3ccc(=[N+](C)C)cc-3oc2c1.[Br-] [TETRAMETHYLROSAMINE]
[11]; [22]
  Papp B→A at 1 h, 5 µM: 2.1 ×10⁻⁶ cm/s
[2]; mdck-ii, 1 h
  Activity: 14.5%
[3]; mdck-ii, 1 h
  Activity: 54%
[14]
  Ratio: 4.3
[20]
  Ratio: 338
[10]; mouse cysteine-less MDR3
  fold induction: 3.7
[16]
  Papp A→B at 1 h, 5 µM: 0.3 ×10⁻⁶ cm/s
[17]; MDCK-MDR1
  efflux ratio at 1 h, 5 µM: 1.6
[5]
  logP: 1.1
[18]
  Papp B→A at 1 h, 5 µM: 101 ×10⁻⁶ cm/s
[19]; [22]
  Papp A→B at 1 h, 5 µM: 1.4 ×10⁻⁶ cm/s
